Peptide text beside a SMILES is read from it.
First: COC1C(O)C(C)OC(OC2CCC3(C)C(CCC4C3CCC3(C)C4(O)CC(O)C34C=CC(=O)OC4)C2)C1O (stereo not given)
Second: COC1CC(OC2CCC3(C)C(CCC4C3CCC3(C)C(C5=CC(=O)OC5)C(OC(C)=O)CC43O)C2)OC(C)C1OC(C)=O (stereo not given)
The logP of the first is lower: 0.59 for the first, 2.95 for the second.

Going from `C=C(C)c1ccccc1` to `O=C(O)CNC(=O)c1ccccc1`, the logP falls from 3.48 to 0.31.

Compared with `CNC(=O)ON=Cc1ccccc1`, `O=Nc1ccccc1` is higher in logP: 1.49 for the first, 2.01 for the second.

Going from `CCCC[n+]1ccccc1.[Br-]` to `CCCNc1ccccc1`, the logP rises from -2.69 to 2.45.

`O=C(C(F)(F)F)C(F)(F)F` and `FC(F)(F)Cl` are within 0.2 log units of each other in logP: 1.46 for the first, 1.65 for the second.

`CCOC(=O)C(=Cc1ccccc1F)C(=O)OCC` and `CCOC(=O)C(=Cc1ccccc1C)C(=O)OCC` are within 0.2 log units of each other in logP: 3.04 for the first, 3.22 for the second.

Compared with `CN(C)C(=O)OCc1ccc(I)cc1`, `COc1ccc(C(=O)OCCN(C)C)cc1` is lower in logP: 3.32 for the first, 2.21 for the second.

Compared with `COc1cc2c(cc1OC)C13CCN4CC5CCOC6CC(=O)N2C1C6C5CC43` (stereo not given), `COc1cc(SC)c(OC)cc1CCN` is higher in logP: 0.84 for the first, 1.81 for the second.

Going from `CCNC(C)C` to `CCNc1nc(NC(C)C(C)C)nc(SC)n1` (stereo not given), the logP rises from 0.93 to 3.9.

Going from `CCCn1cnc([N+](=O)[O-])n1` to `Cc1nc([N+](=O)[O-])cn1CCO`, the logP falls from 0.3 to -0.59.

Going from `CCN(CC)c1nc(C)cc(OP(=S)(OC)OC)n1` to `CCN(CC)CCNC(=O)c1cc(C#N)c(N)cc1OC`, the logP falls from 4.2 to 1.94.

First: CN(C)C(=O)Nc1cccc(N)c1
Second: CC(=O)Nc1ccccc1C
The logP of the first is lower: -0.1 for the first, 0.85 for the second.

Going from `Cc1ccc2cccc(C)c2c1` to `Cc1ccc(C(C)C)cc1`, the logP falls from 4.44 to 4.1.

Compared with `CCCC(C)C1(CC)C(=O)N=C(O)NC1=O` (stereo not given), `CCN(CC)N=Nc1ccc(S(C)(=O)=O)cc1` is higher in logP: 2.1 for the first, 2.6 for the second.

Compared with `N#Cc1cccc(OCC(=O)O)c1`, `N#Cc1cccc(F)c1` is higher in logP: 0.95 for the first, 1.47 for the second.

`OCCc1ccncc1` and `OCCc1ccccn1` are within 0.2 log units of each other in logP: 0.1 for the first, 0.12 for the second.

Compared with `NCCCc1ccccn1`, `NCCc1ccccn1` is lower in logP: 0.49 for the first, 0.08 for the second.

First: COC(=O)NC(=S)Nc1ccccc1NC(=S)NC(=O)OC
Second: NC(=O)Nc1ccccc1F
The logP of the first is higher: 1.4 for the first, 0.88 for the second.

Compared with `CCC(OC(C)=O)C(CC(C)N(C)C)(c1ccccc1)c1ccccc1` (stereo not given), `CCN(CC)C(C)CN1c2ccccc2Sc2ccccc21` (stereo not given) is higher in logP: 4.27 for the first, 4.77 for the second.

First: c1ccc(Cn2ccnn2)cc1
Second: Nc1nnc(Cc2ccccc2)o1
The logP of the first is higher: 1.27 for the first, 0.95 for the second.

Compared with `CN(C)c1cccnc1`, `CN(C=O)c1ccccc1` is lower in logP: 1.41 for the first, 1.09 for the second.

First: O=[N+]([O-])c1ccc2cccccc1-2
Second: O=[N+]([O-])c1cccc2cccnc12
The logP of the first is higher: 2.59 for the first, 1.4 for the second.

Compared with `COc1c(O)c(OC)c(Cl)c(Cl)c1Cl`, `COc1ccc(Br)cc1-c1nc(N)nc(N)n1` is lower in logP: 3.74 for the first, 1.53 for the second.

Compared with `CCOC(=O)NC`, `COC(N)=O` is lower in logP: 0.34 for the first, -0.66 for the second.

Compared with `c1ccc(-c2ccncc2)nc1`, `Nc1ccc(S(=O)(=O)Nc2ncccn2)cc1` is lower in logP: 1.58 for the first, -0.09 for the second.

First: CC(=O)OCc1coc(Cc2ccccc2)c1
Second: O=C(O)CCc1ccccc1
The logP of the first is higher: 3.24 for the first, 1.84 for the second.

Going from `CCOC(=O)CNC(=O)C=[N+]=[N-]` to `CCOC(=O)C(C#N)=NNc1ccccc1Cl`, the logP rises from -0.08 to 3.38.

Compared with `CCCCCCCC(=O)O`, `CCCCCBr` is higher in logP: 3.05 for the first, 3.37 for the second.

Compared with `COP(=O)(OC)OC(Br)C(Cl)(Cl)Br` (stereo not given), `CNC(=O)Oc1cccc(OC(C)C)c1` is higher in logP: 1.38 for the first, 1.96 for the second.

Compared with `Cc1ccc(OCC(=O)NNC(C)C)cc1`, `CC(=O)Oc1ccc(N)cc1` is lower in logP: 1.81 for the first, 0.45 for the second.

`CC12CC3CC(C)(C1)CC(N)(C3)C2` and `CC1CCCC1` are within 0.2 log units of each other in logP: 3.28 for the first, 3.37 for the second.

First: CN(C)C(N(C)C)=S(I)c1ccccc1F (stereo not given)
Second: c1ccc2c(c1)OCO2
The logP of the first is lower: -0.55 for the first, 2.08 for the second.

`O=C(OCc1ccccc1)n1c(=O)[nH]cc(F)c1=O` and `O=COc1ccccc1` are within 0.2 log units of each other in logP: 1.42 for the first, 1.26 for the second.

First: Cc1cccc(C#N)n1
Second: CC(C)C(C#N)c1ccccc1 (stereo not given)
The logP of the first is lower: 0.84 for the first, 2.33 for the second.

Going from `CC(=O)Nc1ccc(F)cc1` to `N=C(N)NC(=O)Nc1ccc(Cl)cc1`, the logP rises from 1.47 to 1.78.

Compared with `CCOCCCl`, `CCCOP(=O)(OCCC)Oc1ccc(SC)cc1` is higher in logP: 0.98 for the first, 3.67 for the second.

Going from `Nc1ccccc1C(F)(F)F` to `CS(=O)(=O)c1ccc2ncccc2c1`, the logP falls from 2.41 to 0.7.

Compared with `CCC(C)=O`, `CC[C@H](C)[C@H](NC(C)=O)C(=O)N[C@@H](CC(N)=O)C(N)=O` (Ac-Ile-Asn-NH2) is lower in logP: 0.29 for the first, -1.41 for the second.

`O=NN1CCOCC1` and `C1CO1` are within 0.2 log units of each other in logP: -0.44 for the first, -0.3 for the second.

`Cc1cc(C)cc(O)c1` and `O=C(Nc1ccc(Cl)cc1)c1cccnc1` are within 0.2 log units of each other in logP: 2.35 for the first, 2.52 for the second.

First: Nc1ncnc2c1ncn2[C@@H]1O[C@H](CO)[C@@H](O)[C@H]1O
Second: CC1(C)SC2C(NC(=O)C(C(=O)Oc3ccccc3)c3ccccc3)C(=O)N2C1C(=O)O (stereo not given)
The logP of the first is lower: -1.05 for the first, 3.14 for the second.

Going from `C#C[C@]1(O)CC[C@H]2[C@@H]3CCC4=CC(=O)CC[C@@H]4[C@H]3CC[C@@]21C` to `O=[N+]([O-])c1ccc(N2CCCCC2)cc1`, the logP rises from 2.97 to 3.26.

`N#CCC(N)=C(C#N)C#N` gave a logP of -0.13.
